Patent US7659308B2, “Concentricolide and its derivatives, process for preparing them, pharmaceutical composition comprising the same and its use” (Kunming Institute of Botany, The Chinese Academy of Sciences, priority 2003, dated 2010)
In brackets after ≈: the same amount, converted by molar mass.

Legend:
Assay type in all cases: cell-based
[1] = tested on: binding and fusion between HIV-1 and cells; test: microbe, parasite or virus in culture; conditions: C8166 + HIV-1 chronically infected H9 cells, 24 h, syncytia formation
Excerpt: When HIV infected cells were co-cultured with normal T lymphocyte cells, the exterior envelope glycoprotein gp120 expressed on infected cells was bound to the cellular CD4 receptor of the uninfected CD4^+ cells, following fusion of cells and formation of syncytia. Compounds target to this site would inhibit the syncytia formation. Thus, this method could be used to detect whether the compounds have effect on binding and fusion between virus and host cell. Concentricolide A in example 1 was diluted by five fold on 96-well microtiter plate, 3 repeated wells in each gradient, 100 μl per well. Negative control well free of compounds and T-20 positive control well were set up. Then, 50 μl of C8166 cells at logarithmic growth period (6×10^5/ml) and 50 μl of HIV-1 chronically infected H9 cells (2×10^5/ml) were added in each well. The plate was cultured in a humidified incubator at 37° C. and 5% CO2 for 24 h, and the syncytial formation was observed under microscope to deduce whether Concentricolide A blocks the fusion process of virus and cell .

HIV-1IIIB = test: Cytopathic effect (CPE) inhibition assay on HIV-1 infected C8166 cells
Method: To 100 μl of a culture medium containing corresponding concentration of concentricolide A from example 1 were added C8166 cells (4×10^5/ml) and HIV-1IIIB at a multiplicity of infection (M.O.I) of 0.06. The final volume was 200 μl. AZT was used as positive drug control. The plates were incubated in a humidified incubator at 37° C. and 5% CO2. After 3 days of culture, the cytopathic effect was measured by counting the number of syncytia in each well under an inverted microscope. EC50 (50% Effective Concentration) was the compound concentration inhibiting 50% of syncytia formation. The cytopathic effect (CPE) inhibition %=(1-number of syncytiaexp/number of syncytiacontrol)×100.

[2] = Cytotoxicity on C8166 cells (MTT colorimetric assay); conditions: human, read-out: CC50 (50% cytotoxic concentration)
Method: (§1) C8166 was one of the host cells for HIV-1. 100 μl of 4×10^5/ml cells were seeded on microtiter plate, 100 μl of various concentrations of concentricolide were added and incubated at 37° C. in a humidified atmosphere of 5% CO2 for 72 h. The cellular toxicity was assessed by MTT calorimetric assay. The plates were read on Bio-Tek ELx 800 ELISA reader at 595/630 nm (OD595/630 nm). 50% cytotoxic concentration (CC50) was calculated as follows: Cell viability %=(ODexp−ODblank)/(ODcontrol−ODblank)×100.

C8166 cells = test: as above; conditions: 72 h
Method: as §1

Which EC50 ([1]; Human immunodeficiency virus 1, read-out: EC50, blockage of binding and fusion between HIV-1 and cells) does the source give for `CC[C@@H]1OC(=O)c2c1ccc1ccoc21` [concentricolide A] here?
Its EC50 is 0.83 µg/mL.

And the EC50 (HIV-1IIIB; Human immunodeficiency virus 1, 72 h, C8166 cells, HIV-1IIIB M.O.I. 0.06, 3 days, syncytia count)?
Its EC50 is 0.31 µg/mL (≈ 1.53 µM).

What about the “selected index (S.I.)” value (HIV-1IIIB; against HIV-1 in vitro) of the same molecule?
Its value is 222.

And the CC50 at 72 h [2]?
Its CC50 at 72 h is 76.7 µg/mL (≈ 379 µM).

What does the source list for `Cc1cn([C@H]2C[C@H](N=[N+]=[N-])[C@@H](CO)O2)c(=O)[nH]c1=O` [AZT, 3P-azido-3P-deoxythymidine, reference compound]?
EC50, inhibition of cytopathic effect (CPE) of HIV-1 (HIV-1IIIB; C8166 cells, HIV-1IIIB M.O.I. 0.06, 3 days, syncytia count): 0.092 µg/mL; CC50 (50% cytotoxic concentration) (C8166 cells): 258.88 µg/mL (≈ 969 µM)

With enfuvirtide as the molecule, how does the “EC50, blockage of fusion of HIV-1 infected cells” value ([1]; positive control) read?
The value was 0.00602 µg/mL.
